Two compounds from US20020164333A1, “Bifunctional molecules and vectors complexed therewith for targeted gene delivery” (The Scripps Research Institute, priority 2000, published 2002) can be followed below.

The subject of this assay is M21-L12 melanoma cells. As to the kind of experiment: Ad-mediated gene delivery after pretreatment of cells with PI3K inhibitors. In kind it is cell-based, human. How it is done:
Efficient Ad internalization via αv integrins requires activation of PI3K, a key cellular signaling molecule. […] Ad mediated gene delivery was analyzed 48 hours post infection.

In the case of `O=c1cc(N2CCOCC2)oc2c(-c3ccccc3)cccc12` [LY294002], the “inhibition of Ad-mediated gene delivery” value (cells pretreated 30 min with wortmannin (30 nM) or LY292004 (20 μM) before Ad.RSV.βgal complexed with D or DT, 48 hours post infection) is ~50%.

For orientation: inhibition means the share of the control response that was lost under treatment. Consider `COC[C@H]1OC(=O)c2coc3c2[C@@]1(C)C1=C(C3=O)[C@@H]2CCC(=O)[C@@]2(C)C[C@H]1OC(C)=O` [Wortmannin, wortmannin], for which, under “Homo sapiens, read-out: inhibition of Ad-mediated gene delivery”, the inhibition at 0.03 µM was ~70%.
